The nature of the data set: photoluminescence quantum yield (fraction); solvent given as SMILES.

Values joined by “and” are separate entries in the source; they are usually repeats but may differ in a detail not shown here. Equal values may be shown once.

Drawing on the Deep4Chem optical property database, this text covers photoluminescence quantum yield for 45 molecules.

As to `Cc1cc(C)c(B(c2c(C)cc(C)cc2C)c2c(C)cc(-n3c4ccc(N(c5ccccc5)c5ccccc5)cc4c4cc(N(c5ccccc5)c5ccccc5)ccc43)cc2C)c(C)c1`, the photoluminescence quantum yield was 0.84 (in Cc1ccccc1) and 1 (in O=P(c1ccccc1)(c1ccccc1)c1ccccc1Oc1ccccc1P(=O)(c1ccccc1)c1ccccc1).
`CCCCCCOc1cc(C=C2C(=O)c3ccccc3C2=O)c(OCCCCCC)cc1C=C1C(=O)c2ccccc2C1=O` registered a photoluminescence quantum yield (in ClCCl) of 0.697.
Under “in c1ccccc1”, `Cc1nc2c(ccc3ccc(N(C)C)cc32)oc1=O` displayed a photoluminescence quantum yield of 0.084.
In turn, `C[n+]1ccn(CCCCc2ccc3c(c2)c2ccccc2n3-c2cc(C#N)c(C#N)cc2F)c1` showed a photoluminescence quantum yield (in CC#N) of 0.029.
As to `COc1ccc2cc([C@H](C)C(=O)O)ccc2c1`, the photoluminescence quantum yield (in C1CCOC1) was 0.45; the photoluminescence quantum yield (in CC#N) came out at 0.31; the photoluminescence quantum yield (in CC(C)O) was found to be 0.23; the photoluminescence quantum yield (in CCCCO) was found to be 0.17; the photoluminescence quantum yield (in CCO) was 0.18; the photoluminescence quantum yield (in CO) was determined as 0.18. Besides, the photoluminescence quantum yield is, setting by setting: (in ClCCl) 0.32; (in O) 0.41.
Consider `O=C1c2ccccc2C(=O)c2cc(-c3ccc(N(c4ccccc4)c4ccccc4)cc3)ccc21`, for which the photoluminescence quantum yield runs as follows: (in CCCCCC) 0.392; (in CCOC(C)=O) 0.0001; (in CCOCC) 0.0129; (in Cc1ccccc1) 0.092; (in ClC(Cl)(Cl)Cl) 0.326; (in ClCCl) 0.
For the setting “in ClCCl”, `CCCCCCCCCCCCN1C(=O)c2c(c3ccc4cc(-c5ccc(-c6ccccc6)cc5)c(OC)cc4c3c3c2ccc2cc(-c4ccc(-c5ccccc5)cc4)c(OC)cc23)C1=O` showed a photoluminescence quantum yield of 0.17.
On to `COC(=O)c1cc(=O)n(C)c2cc(-c3cccc(N(C)C)c3)sc12`, for which the photoluminescence quantum yield reads like this: (in CC#N) 0.03; (in ClCCl) 0.01.
As for `C(#Cc1cccs1)C(C#Cc1cccs1)=Cc1ccc(C=C(C#Cc2cccs2)C#Cc2cccs2)s1`, the photoluminescence quantum yield (in ClC(Cl)Cl) was 0.03 and 0.07.
As for `CCCCC(CC)COc1ccc2nc(-c3ccc(-c4ccc(OC)cc4)s3)sc2c1` (centres undefined), under “in ClCCl”, the photoluminescence quantum yield is 0.83.
As to `CCCCn1c2ccc(C#Cc3cccs3)cc2c2c1c1c3ccc(C#Cc4cccs4)cc3n(CCCC)c1c1c3ccc(C#Cc4cccs4)cc3n(CCCC)c21`, the photoluminescence quantum yield (in C1CCOC1) amounted to 0.39.
The molecule `C#Cc1ccc2cc3c(C)cc(=O)oc3cc2c1` gave a photoluminescence quantum yield (in CCO) of 0.01.
Turning to `c1ccc2c(c1)CCc1ccccc1N2`, the photoluminescence quantum yield reads like this: (in CC#N) 0.2; (in CCCCCC) 0.13; (in CO) 0.131.
In turn, `CCCCCCN(CCCCCC)c1ccc(C#Cc2ccc(N(CCCCCC)CCCCCC)cc2)cc1` gave a photoluminescence quantum yield (in CO) of 0.0001.
For `COc1ccc(-c2cc(-c3ccccc3)nn2C)cc1`, under “in ClCCl”, the photoluminescence quantum yield was determined as 0.21.
Still for that read-out and setting: under `O=c1c2cccc3cccc(c32)c2nc3c4ccccc4c4ccccc4c3n12` stands 0.15; under `Fc1ccc(C2=C(c3ccc(F)cc3)c3cccc4c3c(cc3nc5ccccc5nc34)O2)cc1`, 0.35.
As to `FC(F)(F)c1ccc2oc3nc4oc5ccc(N(c6ccccc6)c6ccccc6)cc5c4cc3c2c1`, where the note is “in ClC(Cl)Cl”, the photoluminescence quantum yield is 0.099.
`Cc1ccc(N(C)C)cc1C1=C2C=CC(=[N+](C)C)C=C2[Si](C)(C)c2cc(N(C)C)ccc21` gave a photoluminescence quantum yield (in O) of 0.001.
Turning to `CCCCCCCCCCCCOc1ccc(C#Cc2ccc(C#Cc3ccc(OCCCCCCCCCCCC)c(OCCCCCCCCCCCC)c3)c3nc4c5ccccc5c5ccccc5c4nc23)cc1OCCCCCCCCCCCC`, the photoluminescence quantum yield was found to be 0.23 (in C1CCOC1), 0.19 (in Cc1ccccc1) and 0.26 (in ClCCl).
As to `COc1ccc2n1[B-](F)(F)[N+]1=CC=CC1=C2c1ccccc1`, the photoluminescence quantum yield is, setting by setting: (in CC#N) 0.02; (in CCCCCC) 0.01; (in CCOC(C)=O) 0.01; (in CO) 0.02; (in ClCCl) 0.02.
For `Cc1cc(C)c([B-]2(c3c(C)cc(C)cc3C)[O+]=P(c3ccccc3)(c3ccccc3)c3cc(-c4ccccc4)sc3-c3sc(-c4ccccc4)cc32)c(C)c1`, under “in C1CCOC1”, the photoluminescence quantum yield came to 0.58.
Turning to `CN(C)c1ccc2nc(/C=C/c3cc4c5c(c3)CCCN5CCC4)c(=O)oc2c1`, the photoluminescence quantum yield by setting is: (in C1CCCCC1) 0.37; (in C1COCCO1) 0.56; (in CC#N) 0.023; (in CC(C)=O) 0.08; (in CCCCCCC) 0.32; (in CCO) 0.008. Also, the photoluminescence quantum yield reads like this: (in CCOC(C)=O) 0.39; (in CN(C)C=O) 0.036; (in CS(C)=O) 0.03; (in Cc1ccccc1) 0.55; (in ClC(Cl)Cl) 0.2; (in ClCCl) 0.19.
`CN(C)c1ccc(/C=C/c2nc3c(ccc4ccccc43)s2)cc1`: the photoluminescence quantum yield by setting is: (in C1CCCCC1) 0.012; (in CC#N) 0.008.
On to `Cc1cc(C)c(B(c2c(C)cc(C)cc2C)N2c3ccccc3C3(c4ccccc4-c4ccccc43)c3ccccc32)c(C)c1`, for which the photoluminescence quantum yield by setting is: (in C1CCCCC1) 0.978; (in Cc1ccccc1) 0.942; (in ClCCl) 0.539.
Turning to `CC1CCC(=CS/C=C/c2ccc(/C=C/SC=C3CCC(C)CC3)cc2)CC1` (centres undefined), where the note is “in ClCCl”, the photoluminescence quantum yield was 0.027.
On to `Fc1ccc(-c2cc3c4c(c2)CCc2cc(-c5ccc(F)cc5)cc(c2-4)CC3)cc1`, for which the photoluminescence quantum yield worked out at 0.48 (in C1CCCCC1); 0.81 (in C1CCOC1); 0.19 (in CC#N); 0.55 (in CCCCCC); 0.18 (in CCO); 0.56 (in CN(C)C=O). Besides, the photoluminescence quantum yield reads like this: (in CO) 0.24; (in Cc1ccccc1) 1; (in ClC(Cl)Cl) 0.55; (in ClCCl) 1.
In turn, `COc1cc2c(cc1-c1ccc(C#N)cc1)Cc1c3c(c4c(c1-2)-c1cc(OC)c(-c2ccc(C#N)cc2)cc1C4)C(=O)N(CCC(C)C)C3=O` returned a photoluminescence quantum yield (in C1CCOC1) of 0.51.
Regarding `COc1ccc(-c2ccc(-c3cc(-c4ccccn4)nc(-c4ccccn4)c3)cc2)cc1`, the photoluminescence quantum yield (in ClCCl) was found to be 0.5.
Molecule `c1ccc(Cc2c3ccc(=[N+]4CCCCC4)cc-3oc3cc(N4CCCCC4)ccc23)cc1` gave a photoluminescence quantum yield (in ClCCl) of 0.87.
`CCN(CC)c1ccc2c(c1)oc(=O)c1c(=O)oc3cc(Br)ccc3c12` displayed a photoluminescence quantum yield (in CS(C)=O) of 0.25 and a photoluminescence quantum yield (in ClCCl) of 0.9.
In turn, `CC(C)[Si](C#Cc1c2ccccc2c(C#C[Si](C(C)C)(C(C)C)C(C)C)c2nc3c(ccc4cc5ccccc5cc43)nc12)(C(C)C)C(C)C` gave a photoluminescence quantum yield (in CCCCCC) of 0.12.
`COC(=O)C(NC(=O)OC(C)(C)C)c1ccc2oc(-c3cc(OC)c(OC)cc3OC)nc2c1` (centres undefined): the photoluminescence quantum yield is 0.58 (in CC1CCCCC1), 0.79 (in CC#N) and 0.81 (in CO).
The molecule `CN(C)c1ccc(-c2cc[n+](C)cc2)s1` yielded a photoluminescence quantum yield (in CCO) of 0.003.
Turning to `COc1ccc(-c2c3ccc([nH]3)c3nc(c(-c4ccc(C#N)cc4)c4ccc([nH]4)c4ccc([nH]4)c(-c4ccc(OC)cc4)c4ccc2o4)C=C3)cc1`, the photoluminescence quantum yield stood at 0.072 (in C1CCOC1), 0.141 (in Cc1ccccc1) and 0.147 (in c1ccccc1).
Molecule `COc1ccc(-c2csc(/C(C#N)=C/c3ccccc3Cl)n2)cc1` returned a photoluminescence quantum yield (in CC#N) of 0.062.
Molecule `Cn1c2ccccc2c2cc(/C=C/C3=[O+][B-](F)(F)OC(/C=C/c4ccc5c(c4)c4ccccc4n5C)=C3c3ccccc3)ccc21` yielded a photoluminescence quantum yield (in ClCCl) of 0.6.
In turn, `CCN1\C(=C/C=C/C=C/C2=[N+](CC)c3ccc4ccccc4c3C2(C)C)C(C)(C)c2c1ccc1ccccc21` had a photoluminescence quantum yield (in CS(C)=O) of 0.302.
Consider `N#Cc1c(-n2c3ccc(Br)cc3c3cc(Br)ccc32)c(C#N)c(-n2c3ccc(Br)cc3c3cc(Br)ccc32)c(-n2c3ccc(Br)cc3c3cc(Br)ccc32)c1-n1c2ccc(Br)cc2c2cc(Br)ccc21`, for which the photoluminescence quantum yield (in Cc1ccccc1) was found to be 0.67.
`CC[N+](CC)=c1ccc2c(C(F)(F)F)c3c(oc-2c1)-c1ccc(N(C)C)cc1CC3`: the photoluminescence quantum yield (in CCO) came to 0.163, the photoluminescence quantum yield (in ClCCl) is 0.336 and the photoluminescence quantum yield (in O) amounted to 0.039.
In turn, `CC1=CC(C)=[N+]2C1=C(c1ccc(-c3c4ccccc4c(-c4ccccc4)c4ccccc34)cc1)c1c(C)cc(C)n1[B-]2(F)F` gave a photoluminescence quantum yield (in CC#N) of 0.11; a photoluminescence quantum yield (in CCCCCC) of 0.7; a photoluminescence quantum yield (in CCO) of 0.37; a photoluminescence quantum yield (in CN(C)C=O) of 0.13; a photoluminescence quantum yield (in Cc1ccccc1) of 0.65; a photoluminescence quantum yield (in ClCCl) of 0.57.
Take `C(S/C=C/c1ccc(/C=C/SC=C2CCCCCCC2)cc1)=C1CCCCCCC1`: the photoluminescence quantum yield (in ClCCl) was 0.018.
Turning to `O=C([O-])c1ccc(C(=O)[O-])c(C2=c3cc4c5c(c3Oc3c2cc2c6c3CCCN6CCC2)CCC[N+]=5CCC4)c1`, the photoluminescence quantum yield is 0.83 (in CCO) and 0.64 (in O).
Turning to `Cc1cc2ccccc2c2c1c1ccccc1n2C(=O)OC(C)(C)C`, the photoluminescence quantum yield (in ClCCl) worked out at 0.185.
Turning to `Clc1ccc(/C=C/c2nc3ccccc3s2)cc1`, the photoluminescence quantum yield by setting is: (in C1CCCCC1) 0.04; (in CO) 0.01.
